Assay results taken from US20220409692A1, “Systems Chemico-Pharmacology Drugs and Methods of Use” (The Medical College of Wisconsin, priority 2019, published 2022).
Peptide text beside a SMILES is read from it.

Assays:
[1] = system: cultured endothelial cells; settings: added to culture media; cited from earlier work
MPO = target: T1, MPO (Homo sapiens, UniProt P05164); test: MPO oxidation of KYC to thiyl radical, ESR with DMPO; type: biochemical; settings: MPO 120 nM, H2O2 50 μM, KYC 30 μM
T1 sequence (P05164 49-745): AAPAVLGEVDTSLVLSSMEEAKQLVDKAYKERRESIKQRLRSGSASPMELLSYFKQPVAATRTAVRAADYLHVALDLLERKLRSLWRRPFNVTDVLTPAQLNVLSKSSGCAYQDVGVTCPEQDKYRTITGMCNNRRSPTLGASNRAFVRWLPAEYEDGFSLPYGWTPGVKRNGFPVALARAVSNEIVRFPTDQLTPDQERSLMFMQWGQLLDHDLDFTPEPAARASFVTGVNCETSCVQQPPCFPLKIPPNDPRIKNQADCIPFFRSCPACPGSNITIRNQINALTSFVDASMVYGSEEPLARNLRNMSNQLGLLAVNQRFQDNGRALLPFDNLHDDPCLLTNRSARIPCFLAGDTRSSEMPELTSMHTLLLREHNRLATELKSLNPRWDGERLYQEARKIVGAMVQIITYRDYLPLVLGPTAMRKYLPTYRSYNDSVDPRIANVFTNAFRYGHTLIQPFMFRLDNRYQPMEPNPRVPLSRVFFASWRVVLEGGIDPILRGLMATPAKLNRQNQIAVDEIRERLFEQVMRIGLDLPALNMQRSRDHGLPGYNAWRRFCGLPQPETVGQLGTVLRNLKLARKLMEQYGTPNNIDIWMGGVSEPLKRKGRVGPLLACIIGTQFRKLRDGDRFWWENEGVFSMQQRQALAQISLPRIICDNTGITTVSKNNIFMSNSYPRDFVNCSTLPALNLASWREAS
Procedure: FIG. 30. MPO Oxidizes KYC to a KYC Thiyl Radical That Thiylates HMGB1. (A) ESR spectrum of KYC thiyl S°-DMPO generated by an MPO reaction mixture containing MPO (120 nM), H2O2 (50 μM) and KYC (30 μM). (B) Streptavidin-affinity blot of KYC thiylated HMGB1 and MPO in a split sample, one half treated neat and other half treated with DTT (100 mM) to reduce disulfide bonds.
This spectrum is similar to the spectrum of DMPO-S◯-YC generated when the dipeptide YC was added to an MPO reaction mixture containing DMPO [34].

adult mice = test: Review of KYC doses in previous studies in adult mice; type: in vivo, mouse; settings: 15 mg/kg twice per day vs 800 mg/kg
Procedure: No KYC dose-response studies were performed in neonatal rat pups in preparation for the current study. Instead, we decided to treat neonatal rat pups empirically with KYC at 5 mg/kg twice per day based on published and unpublished data in adult mice. […] The dose of KYC used in the current study is based on our experience in treating chronic inflammation in other disease states and is within the range that we consider appropriate for neonatal rat pups and adult rats.

control mice = test: Increasing single IP doses of KYC in control mice; type: in vivo, mouse; settings: unpublished, personal observations
[2] = system: hyperoxic neonatal rat pups; test: Hyperoxia-induced BPD in neonatal rat pups: lung histology, cell counts and morphometrics; type: in vivo, Sprague-Dawley rat
Description: Since the number of neonatal rat pups per pregnant dam limits the number of experimental conditions that can be compared, we modified our standard experimental design protocol. The first experiment was designed to determine if hyperoxia increased BPD, while the second was designed to determine if inhibiting MPO oxidant production reduced BPD. At least three sets of neonatal pups from three different dams were used for each experiment. Pups were fed ad libitum from nursing dams. Pups were weighed and inspected daily in room air for less than ten minutes. Nursing dams were switched daily to avoid the impact of nutritional status. Experience has taught us that severity of hyperoxia-induced BPD is litter dependent. To minimize litter differences, we determined the effects of hyperoxia vs. normoxia on BPD in neonatal pups by mixing pups from the litters and randomly reallocating pups with nursing dams.
Immunohistochemistry and Immunocytochemistry: After cannulating the trachea with an Instech Solomon (20G) stainless steel feeding tube (Plymouth Meeting, Pa.), the lungs were inflated with 10% neutral buffered formalin at 25 cm-H2O (2.4 kPa) for 1 h. Lungs were removed after the trachea were securely tied with surgical silk to maintain the pressure, and perfusion fixed with an additional aliquot of 10% neutral buffered formalin for 24 h before paraffin embedding. Lung sections (5 μm) were mounted on SuperFrost plus-coated slides (Denville Scientific, Metuchen, N.J.). Slides were deparaffinized and sections stained with hematoxylin and eosin (H&E). Histology images were captured with a mounted digital camera using an Olympus IX 51 microscope and a 10× objective. Inflammatory cells, myeloid cells including neutrophils, monocytes, and macrophages, were stained with MPO antibody (1:200) overnight at 4° C. and HPR-conjugated anti-rabbit antibody (1:1000) at room temperature for one hour then visualized by diaminobenzidine to generate a dark-brown color. Blood vessels were stained with RECA-1 and visualized with horseradish-conjugated secondary antibody and diaminobenzidine. The average of three sections per pup, and five counts per section (15 counts/pup) was used for statistical analysis. Quantified data were obtained and entered into the record using predetermined codes by one of the coauthors who was not involved in taking the images.
Morphometric Analysis: The mean linear intercept (MLI), or chord length, was used as a method to estimate the volume-to-surface ratio of acinar airspaces whereas radial alveolar count (RAC) and secondary septa were investigated to study the complexity of lung structure (21). Ten equally spaced horizontal lines were drawn on each picture, and the number of intercepts through the alveolar wall was counted. MLI was obtained by the number of times the traverses are placed on the lung times the length of the traverse then divided by the sum of all the intercepts. For the RAC, a line from the center of the respiratory tract perpendicular to the nearest connective tissue septum was drawn, and alveoli intercepting with the line were counted. For measurement of secondary septa, elastin was stained with resorcin fuchsin and Van Gieson's solution.
Since the number of neonatal rat pups per pregnant dam limits the number of experimental conditions that can be compared, we modified our standard experimental protocol. The first study was designed to determine if hyperoxia increased BPD and caused a change in proteins of interest. Data from these studies can be found in on-line supplemental data. The second study was designed to determine if inhibiting MPO toxic oxidant production reduced BPD. At least three sets of neonatal pups from three different dams were used for each study. Pups were fed ad libitum from nursing dams. Pups were inspected daily starting on P1 and weighed starting on P3 in room air for less than ten minutes. Nursing dams were switched daily to avoid the impact of oxygen toxicity. […]

[3] = hyperoxic pups, KYC vs PBS, P10

SMILES: CC(=O)N[C@@H](CCCCN)C(=O)N[C@@H](Cc1ccc(O)cc1)C(=O)N[C@@H](CS)C(N)=O [KYC, N-acetyl lysyltyrosylcysteine amide] (Ac-Lys-Tyr-Cys-NH2)
- concentration with little to no effect on endothelial cell viability, apoptosis, necrosis, or mitochondrial function [1]: up to 4000 μM
- ESR spectrum of MPO reaction mixture with DMPO (MPO): four-line ESR spectrum corresponding to DMPO-SO-KYC
- factor by which the higher dose is below the KYC level observed to induce adverse effects (adult mice): more than 26 times
- single dose at which observable adverse effects were induced (control mice): 800 mg/kg
- RAC (radial alveolar count) ([2]; KYC-treated HOX group, P10, PBS-treated HOX 4.2±0.6): 6.3±0.4
- secondary septation ([2]; KYC-treated HOX group, P10, PBS-treated HOX 5.0±1.3): 7.8±1.2 /HPF
- capillary count ([2]; KYC-treated HOX group, P10, PBS-treated HOX 5.2±1.0): 9.7±3.0 /HPF
- MLI (mean linear intercept) ([2]; KYC-treated HOX group, P10, PBS-treated HOX 95.9±9.1): 74.1±4.7 μm
- MPO-positive myeloid cell count ([2]; hyperoxia (O2>90%) pups, KYC 5 mg/kg twice per day i.p. P2-P10, lungs at P10, PBS 2.0±0.7): 0.8±0.7 /HPF
- reduction of myeloid cell recruitment (MPO+ myeloid cells) ([2]; hyperoxic lungs, KYC vs PBS, P10): approximately 50%
- decrease of MLI [2, 3]: approximately 22%
- increase of RAC [2, 3]: approximately 35%
- increase of blood vessel counts [2, 3]: ~92%
- increase of secondary septa [2, 3]: ~55%
- 8-OH-dG immunofluorescence staining (oxidative DNA damage) ([2]; hyperoxic rat pups, KYC vs PBS): reduced 8-OH-dG in the nuclei of lung cells
